“Also recorded” adds a separate entry of the source.
Columns and labels:
[1] = system: human A375 melanoma cells; assay: Tumor growth of human A375 melanoma cells implanted in SCID mice; format: in vivo, mouse; details: 19 days after palpable tumor formation, AKB-6899 17.5 mg/kg, Docetaxel 30 mg/kg
Description: During treatment, tumor growth was determined. Animals were treated with one the following combinations: vehicle/vehicle, vehicle/AKB-6899 (17.5 mg/kg), Docetaxel (30 mg/kg)/vehicle, or Docetaxel/AKB-6899. 19 days after palpable tumor formation, the tumors in the mice receiving the vehicle/AKB-6899 combination had tumors that were 74% the size of control; the tumors in the mice receiving Docetaxel/vehicle combination had tumors that were 49% the size of control; and the tumors in the mice receiving the Docetaxel/AKB-6899 combination had tumors that were 13% the size of control.

A549 adenocarcinoma = assay: XTT cell survival assay, A549 lung cancer cells; format: cell-based, human; details: A549, increasing doses (FIG. 13B)
Description: FIGS. 13A-13B show XTT cell survival assays for normal lung epithelial cells (BEAS-2B) and lung cancer cells (H1703 squamous cell carcinoma and A549 adenocarcinoma) in response to increasing doses of AKB-6899.

[2] = system: 23 different gene promoters; assay: Percent methylation of 23 gene promoters in A549 adenocarcinoma; format: cell-based, human; details: A549, 10 μM and 50 μM, compared to DMSO
Description: FIGS. 11A-11D show the percent methylation for 23 different gene promoters in two types of human lung cancer cells—FIGS. 11A and 11B are directed at H1703 squamous cell carcinoma and FIG. 11C and FIG. 11D are directed at A549 adenocarcinoma. DMSO was used as a vehicle and was used as a control. […] The Dec/PBA condition represents a combination of 5 μM Decitabine (5-aza-2′deoxycytidine (5-AZA), which is a demethylating agent) and 2 mM […] (PBA, HDAC inhibitor). In all promoters tested, and in both types of lung cancer, AKB-6899 demethylated the gene promoters such that the level of % DNA methylation following AKB-6899 treatment was below the level of % DNA methylation of the DMSO-treated control cells (DMSO).

[3] = system: desmoplakin (DSP) gene promoter; assay: Methylation-specific PCR of DSP promoter in MDA-MB-231 cells; format: cell-based, human
Description: FIGS. 3A-3E show the effect of AKB-6899 (25 μM) on methylation of the desmoplakin (DSP) gene promoter in PyMT breast cancer cells (3A), human MDA-MB-231 triple negative breast cancer cells (3B), human C8161.9 melanoma cells (3C), and human MCF-7 breast cancer cells (3D). In FIG. 3A, the DSP promoter was 100% unmethylated (AKB-6899) vs. 99.99% methylated (vehicle). In FIG. 3B, the DSP promoter was 99.62% unmethylated (AKB-6899) v. 99.89% (vehicle). In FIG. 3C, the DSP promoter was 99.90% unmethylated (AKB-6899) v. 42.04% (vehicle). In FIG. 3D, the DSP promoter was 92.48% unmethylated (AKB-6899) v. 98.48% (vehicle). In FIG. 3E, when compared to the vehicle (DMSO), treatment of PyMT cells with AKB-6899 increased DSP expression.
(§1) To determine whether the decrease in DNMT expression and the increase in DSP expression were relevant in human cancer, the level of desmoplakin expression in MDA-MB-231 human triple negative breast cancer cells was determined. […] (FIG. 3B).

DSP promoter = assay: CpG methylation of DSP promoter in lungs of normal mice; format: in vivo, mouse; details: i.p., three weeks (FIG. 14B)
Description: FIGS. 14A-14C show the effects of systemic administration of AKB-6899. Mice were treated three times per week for three weeks with either i.p. AKB-6899 or i.p. DMSO. The lungs were removed and assayed to determine DNMT mRNA expression, percent CpG methylation, and fold change in mRNA. […] The data was standardized to 1.0 by the DMSO levels of the respective gene expression, (n=4 lungs per condition).

DNMT-3a = DNMT-3a mRNA expression by RT-PCR in MDA-MB-231 tumor cells; format: cell-based, human; details: 25 μM, 24 hours, compared to DMSO (FIG. 1B)
Description: FIGS. 1A-1E show DNA methyltransferase mRNA expression in vitro and in vivo. […] PyMT tumor cells were left untreated, were treated with DMSO, or were treated with AKB-6899 (10, 25, or 50 μM) for 24 hours. The cells were subjected to Trizol extraction to recover total RNA. cDNA was synthesized for RT-PCR of DNMT-1 and DNMT-3a mRNA expression. […] Human MDA-MB-231 tumor cells were left untreated, were treated with DMSO, or were treated with AKB-6899 (25 μM) for 24 hours. Total RNA was isolated for RT-PCR. FIG. 1C (DNMT-1), FIG. 1D (DNMT-3a), and FIG. 1E (DNMT-3b) compare the effect of AKB-6899 with the effect of 5-aza-2′deoxycytidine (5-AZA) as assessed by RT-PCR in human cervical tumors implanted in mice that were either untreated (UTX), treated with DMSO, treated with 5-AZA, or treated with AKB-6899 (17.5 mg/kg).
as §1

c-Myc promoter = assay: Percent DNA methylation of c-Myc promoter in human cervical tumors in animals; format: in vivo; details: animal models of human cervical tumors, 17.5 mg/kg (FIG. 7A)
Description: Animal models of human cervical tumors were untreated, treated with DMSO, treated with 5-AZA or treated with AKB-6899 (17.5 mg/kg).

DNMT-3b = DNMT-3b transcription in H1703 lung cancer cells; format: cell-based, human; details: H1703 cells in vitro, dose-dependent (FIG. 10A)
Description: In FIG. 10A, AKB-6899 inhibited DNMT-1, DNMT-3a, and DNMT-3b transcription in a dose-dependent manner in human squamous cell carcinoma lung cancer cells (H1703), in vitro. The DMSO-treated DNMT mRNAs are over 1.0, meaning the level of expression is higher than the housekeeping control gene, CAP1. In FIG. 10B, AKB-6899 inhibited DNMT-3a and DNMT-3b transcription in human adenocarcinoma lung cancer cells (A549). The DMSO-treated DNMT mRNAs are under 1.0, meaning the level of expression is lower than the housekeeping control gene, CAP1.

desmoplakin protein = assay: Desmoplakin protein expression in cultured PyMT tumor cells; format: cell-based, mouse; details: 10 μM, 24 hours (FIG. 5A)
Description: FIGS. 5A-5B show desmoplakin protein expression following AKB-6899 treatment. In FIG. 5A, cultured PyMT tumor cells were treated for 24 hours with DMSO or AKB-6899 (10 μM). AKB-6899 increased desmoplakin protein expression.
The gene expression signatures from the tumors of PyMT breast tumor-bearing mice that were treated with either vehicle or AKB-6899 were evaluated. […] Methylation-specific PCR on the desmoplakin promoter was performed. The level of hypomethylation was near complete.

## O=C(O)CNC(=O)c1ncc(-c2cccc(F)c2)cc1O [AKB-6899, {[5-(3-Fluorophenyl)-3-hydroxypyridine-2-carbonyl]amino}acetic acid]
[1]
  tumor size relative to control: 74%
A549 adenocarcinoma
  cell survival / toxicity: pronounced toxicity
[2]
  percent DNA methylation of 23 gene promoters: decreased the percent of DNA methylation in a dose response fashion
[3]; MDA-MB-231 cells
  methylation state of DSP promoter CpG islands (in words): almost entire demethylation; also recorded: near complete
[3]; MDA-MB-231 human triple negative breast cancer cells
  desmoplakin promoter methylation after treatment: 0.38%
[3]; MDA-MB-231 triple negative breast cancer cells, 25 μM (FIG. 3B)
  DSP promoter unmethylated: 99.62%
DSP promoter
  methylation of DSP promoter in lungs: demethylated
DNMT-3a
  DNMT-3a mRNA expression: significantly decreased; also recorded: downregulated
c-Myc promoter
  DNA methylation of c-Myc promoter: completely demethylated
DNMT-3b
  DNMT-3b transcription: inhibited
Desmoplakin protein
  desmoplakin protein expression: upregulation; also recorded: increased

Reference: patent US20160199434A1, “COMPOSITIONS AND METHODS FOR MODULATING DNA METHYLATION” (OHIO STATE INNOVATION FOUNDATION, priority 2013, published 2016)
